Assay results as given in US20240051997A1, “SAP AND PEPTIDOMIMETIC COMPOSITIONS FOR REDUCING SYMPTOMS OF INFLAMMATION” (Arch Biosurgery, Inc., priority 2018, published 2024).
Entries after “also recorded” stand apart in the source; their conditions may differ.

Experiments:
Human THP-1 cells [1] = assay: Cytokine release by THP-1 cells stimulated with RADA-16 or LPS (PROTEOME PROFILER Array); type: cell-based
Procedure: (§1) The anti-inflammatory effect of a SAP was examined using an in vitro assay to assess cytokine release by human THP-1 cells in the presence of SAP. Measurement of THP-1 cell activation in response to antigen was assessed by cytokine release.
Human THP-1 cells in culture media (1×10^6 cells in 1 ml of Culture medium) were exposed to the self-assembling peptide RADARADARADARADA (“RADA-16”; SEQ ID NO: 1), at a concentration of 1 μg/well, 10 μg/well, or 100 μg/well.
Human THP-1 cells in the absence of RADA-16 were used as a control to assess the baseline level of cytokine production in “resting” non-actived THP-1 cells.
(§2) To assess cytokine release upon THP-1 cell activation, lipopolysaccharides (LPS) from Salmonella typhimurium (catalog no. L-7261; Sigma-Aldrich, St. Louis, MO) were added to THP-1 cells, at a concentration of 1 μg/ml.
(§3) The release of cytokines in response to exposure of THP-1 cells to RADA-16 (SEQ ID NO: 1) or LPS was measured using the PROTEOME PROFILER™ Array kit, commercially available as a test strip kit for detection of cytokines in solution (R&D Systems, Inc., Catalog Number ARY005). The assay was carried out according to the manufacturer's guide lines.

[2] = system: liver inflammation, ED-1 reactivity (macrophage activation); assay: Rat liver injury model (punch biopsy), ED-1 immunohistochemistry; type: in vivo, Sprague-Dawley rat; conditions: 4 mm punch biopsy, all time-points observed, compared to saline or acid controls
Procedure: The anti-inflammatory effects of EARA-16 (SEQ ID NO: 89) and RADA-16 (SEQ ID NO: 1) SAPs were examined using a liver injury model. Levels of inflammation were assayed through immuno-histochemical ED-1 reactivity (ED-1 serves as a marker of macrophage activation).
Pigs or adult Sprague-Dawley rats were anesthetized and their intraperitoneal cavities were opened under aseptic conditions. For each animal, the liver was exposed and then subjected to an 8 mm (pig) or 4 mm (rat) punch biopsy.
The punch sites were then cauterized or treated with acid (for pH control), saline, or RADA-16 (SEQ ID NO: 1) or EARA-16 (SEQ ID NO: 89) solutions. The animals were allowed to survive for up to 14 days. The animals were then sacrificed and their livers were harvested and sectioned. An ED-1 antibody was used to determine the level of inflammation and activation of macrophages in the liver via immunohistochemistry (IHC).

Human THP-1 cells [3] = assay: Cytokine release by THP-1 cells exposed to LPS/RADA-16 mixture; type: cell-based; conditions: LPS 1 μg/ml added to 1, 10 or 100 μg/well peptide, then to THP-1 cells
Procedure: as §1, §2
To determine the effects of exposing THP-1 cells to RADA-16 (SEQ ID NO: 1) upon cytokine release, LPS was added to each of the 1 μg/well, 10 μg/well, or 100 μg/well RADA-16 samples, and then added to THP-1 cells.
as §3

## RADARADARADARADA [RADA-16, self-assembling peptide]
Human THP-1 cells [1]; 1 mcg (1 μg/well) RADA-16
  C5a (Complement Component 5a) release: 0
  CD40 Ligand (CD154) release: 0
  G-CSF (CSF −, CSF-3) release: 0
  GM-CSF (CSF |, CSF-2) release: 0
  GRO | (CXCL1) release: 0
  I-309 (CCL1) release: 0
  I-TAC (CXCL11) release: 0
  IFN-• (Type II IFN) release: 0
  IL-1 alpha (IL-1F1) release: 0
  IL-1 beta (IL-1F2) release: 0
  IL-1ra (IL-1F3) release: 22.59
  IL-2 release: 0
  IL-4 release: 0
  IL-5 release: 0
  IL-6 release: 0
  IL-8 (CXCL8) release: 0
  IL-10 release: 0
  IL-12 p 70 release: 0
  IL-13 release: 0
  IL-16 (LCF) release: 0
  IL-17E release: 0
  IL-17 release: 0
  IL-23 release: 0
  IL-27 release: 0
  IL-32 release: 0
  IP-10 (CXCL10) release: 0
  MCP-1 (CCL2) release: 0
  MIP-1 | (CCL3) release: 0
  MIP-1− (CCL4) release: 0
  SDF-1 (CXCL12) release: 0
  TNF- | (TNFSF2) release: 0
  sICAM-1 (CD54) release: 0
  sTREM-1 release: 0
Human THP-1 cells [1]; 10 mcg (10 μg/well) RADA-16
  C5a (Complement Component 5a) release: 0
  CD40 Ligand (CD154) release: 0
  G-CSF (CSF −, CSF-3) release: 0
  GM-CSF (CSF |, CSF-2) release: 0
  GRO | (CXCL1) release: 0
  I-309 (CCL1) release: 0
  I-TAC (CXCL11) release: 0
  IFN-• (Type II IFN) release: 0
  IL-1 alpha (IL-1F1) release: 0
  IL-1 beta (IL-1F2) release: 0
  IL-1ra (IL-1F3) release: 0
  IL-2 release: 0
  IL-4 release: 0
  IL-5 release: 0
  IL-6 release: 0
  IL-8 (CXCL8) release: 0
  IL-10 release: 0
  IL-12 p 70 release: 0
  IL-13 release: 0
  IL-16 (LCF) release: 0
  IL-17E release: 0
  IL-17 release: 0
  IL-23 release: 0
  IL-27 release: 0
  IL-32 release: 0
  IP-10 (CXCL10) release: 0
  MCP-1 (CCL2) release: 0
  MIP-1 | (CCL3) release: 0
  MIP-1− (CCL4) release: 0
  SDF-1 (CXCL12) release: 0
  TNF- | (TNFSF2) release: 0
  sICAM-1 (CD54) release: 0
  sTREM-1 release: 0
Human THP-1 cells [1]; 100 mcg (100 μg/well) RADA-16
  C5a (Complement Component 5a) release: 0
  CD40 Ligand (CD154) release: 0
  G-CSF (CSF −, CSF-3) release: 0
  GM-CSF (CSF |, CSF-2) release: 0
  GRO | (CXCL1) release: 0
  I-309 (CCL1) release: 0
  I-TAC (CXCL11) release: 0
  IFN-• (Type II IFN) release: 0
  IL-1 alpha (IL-1F1) release: 0
  IL-1 beta (IL-1F2) release: 0
  IL-1ra (IL-1F3) release: 0
  IL-2 release: 0
  IL-4 release: 0
  IL-5 release: 0
  IL-6 release: 0
  IL-8 (CXCL8) release: 0
  IL-10 release: 0
  IL-12 p 70 release: 0
  IL-13 release: 0
  IL-16 (LCF) release: 0
  IL-17E release: 0
  IL-17 release: 0
  IL-23 release: 0
  IL-27 release: 0
  IL-32 release: 0
  IP-10 (CXCL10) release: 0
  MCP-1 (CCL2) release: 0
  MIP-1 | (CCL3) release: 0
  MIP-1− (CCL4) release: 0
  SDF-1 (CXCL12) release: 0
  TNF- | (TNFSF2) release: 0
  sICAM-1 (CD54) release: 0
  sTREM-1 release: 0
Human THP-1 cells [1]; resting THP-1 cells, 1, 10 or 100 μg/well, no LPS
  induction of cytokine release relative to baseline: did not induce cytokine release beyond baseline levels
[2]
  levels of inflammation in liver (ED-1 IHC): markedly reduced the levels of inflammation
Human THP-1 cells [3]
  cytokine release upon LPS exposure (C5a, TNFSF2, IL-6, IL-8/CXCL8, MCP-1/CCL2, MIP-1/CCL3, MIP-1/CCL4, IL-1/IL1-F2): reduced levels of cytokine release; also recorded: prevented or reduced the release of cytokines
